Source: patent US11083725B2 (priority 2014, dated 2021)

Tested on: NHBE cells
Test: Biolog metabolic array: substrate use by NHBE cells with or without CA09 infection
Assay type: cell-based, human
Settings: for Substrate use, 590 nm absorbance normalized to zero hour, 0 hr: Biolog PMM2, 0 hr; for Substrate use, 590 nm absorbance normalized to zero hour, 1 hr: Biolog PMM2, 1 hr; for Substrate use, 590 nm absorbance normalized to zero hour, 5 hr: Biolog PMM2, 5 hr; for Substrate use, 590 nm absorbance normalized to zero hour, 7 hr: Biolog PMM2, 7 hr
[1] = Control (uninfected) NHBE cells
[2] = Virus (CA09-infected, MOI 1) NHBE cells
[3] = Virus: CA09-infected NHBE cells, MOI 1, Biolog PMM2
[4] = Virus (CA09, MOI 1) infected NHBE cells

In the case of `OC[C@@]12OC[C@@H](O1)[C@@H](O)[C@@H](O)[C@@H]2O` [Sedoheptulosan], the “590 nm absorbance normalized to zero hour (substrate use), 0 hr” value [1] is reported as 1.00, the “590 nm absorbance normalized to zero hour (substrate use), 1 hr” value [1] is reported as 0.31 and the “590 nm absorbance normalized to zero hour (substrate use), 2 hr” value (from here on “590 nm absorbance normalized … 2 hr”) [1] is reported as 0.41. The “590 nm absorbance normalized to zero hour (substrate use), 3 hr” value (shortened to “590 nm absorbance normalized … 3 hr”) [1] was 0.44, the “590 nm absorbance normalized to zero hour (substrate use), 4 hr” value (“590 nm absorbance normalized … 4 hr” below) [1] was 0.49 and the “590 nm absorbance normalized to zero hour (substrate use), 6 hr” value (from here on “590 nm absorbance normalized … 6 hr”) [1] was 0.56. For the same compound, the “590 nm absorbance normalized to zero hour (substrate use), 8 hr” value (shortened to “590 nm absorbance normalized … 8 hr”) [1] was 0.71, the “590 nm absorbance normalized to zero hour (substrate use), 9 hr” value (“590 nm absorbance normalized … 9 hr” below) [1] was 0.82 and the “590 nm absorbance normalized to zero hour (substrate use), 10 hr” value (from here on “590 nm absorbance normalized … 10 hr”) [1] was 0.89. The “590 nm absorbance normalized to zero hour (substrate use), 11 hr” value (“590 nm absorbance normalized … 11 hr” below) [1] was 1.46, the “Substrate use, 590 nm absorbance normalized to zero hour, 0 hr” value [1] was 1.00 and the “Substrate use, 590 nm absorbance normalized to zero hour, 1 hr” value [1] was 0.31. For the same compound, the “Substrate use, 590 nm absorbance normalized to zero hour, 5 hr” value [1] was 0.61, the “Substrate use, 590 nm absorbance normalized to zero hour, 7 hr” value [1] was 0.71 and the “590 nm absorbance normalized to zero hour (substrate use), 0 hr” value [2] was 1.00. For the same compound, the “590 nm absorbance normalized to zero hour (substrate use), 1 hr” value [2] was 1.49, the “590 nm absorbance normalized … 2 hr” value [2] was 1.48 and the “590 nm absorbance normalized … 3 hr” value [2] was 1.46. For the same compound, the “590 nm absorbance normalized … 4 hr” value [2] was 1.43, the “590 nm absorbance normalized to zero hour (substrate use), 5 hr” value [2] was 1.30 and the “590 nm absorbance normalized … 6 hr” value [2] was 1.36. The “590 nm absorbance normalized to zero hour (substrate use), 7 hr” value [2] was 1.39, the “590 nm absorbance normalized … 8 hr” value [2] was 1.49 and the “590 nm absorbance normalized … 9 hr” value [2] was 1.58. For the same compound, the “590 nm absorbance normalized … 10 hr” value [2] was 1.48, the “590 nm absorbance normalized … 11 hr” value [2] was 1.65 and the “590 nm absorbance normalized to zero hour (substrate use), 0 hr” value [3] was 1.00. For the same compound, the “590 nm absorbance normalized to zero hour (substrate use), 1 hr” value [3] was 1.49, the “590 nm absorbance normalized … 2 hr” value [3] was 1.48 and the “590 nm absorbance normalized … 3 hr” value [3] was 1.46. The “590 nm absorbance normalized … 4 hr” value [3] was 1.43, the “590 nm absorbance normalized to zero hour (substrate use), 5 hr” value [3] was 1.30 and the “590 nm absorbance normalized … 6 hr” value [3] was 1.36. For the same compound, the “590 nm absorbance normalized to zero hour (substrate use), 7 hr” value [3] was 1.39, the “590 nm absorbance normalized … 8 hr” value [3] was 1.49 and the “590 nm absorbance normalized … 9 hr” value [3] was 1.58. For the same compound, the “590 nm absorbance normalized … 10 hr” value [3] was 1.48 and the “590 nm absorbance normalized … 11 hr” value [3] was 1.65.
For `OC[C@H]1O[C@H](OC[C@H]2O[C@H](OC[C@H]3O[C@H](O[C@]4(CO)O[C@H](CO)[C@@H](O)[C@@H]4O)[C@H](O)[C@@H](O)[C@@H]3O)[C@H](O)[C@@H](O)[C@H]2O)[C@H](O)[C@@H](O)[C@H]1O` [Stachyose], the “590 nm absorbance normalized to zero hour (substrate use), 0 hr” value [1] was 1.00, the “590 nm absorbance normalized to zero hour (substrate use), 1 hr” value [1] was 8.51 and the “590 nm absorbance normalized … 2 hr” value [1] was 8.20. The “590 nm absorbance normalized … 3 hr” value [1] was 7.94, the “590 nm absorbance normalized … 4 hr” value [1] was 8.00 and the “590 nm absorbance normalized … 6 hr” value [1] was 3.45. For the same compound, the “590 nm absorbance normalized … 8 hr” value [1] was 3.67, the “590 nm absorbance normalized … 9 hr” value [1] was 3.90 and the “590 nm absorbance normalized … 10 hr” value [1] was 9.13. The “590 nm absorbance normalized … 11 hr” value [1] was 4.47, the “Substrate use, 590 nm absorbance normalized to zero hour, 0 hr” value [1] was 1.00 and the “Substrate use, 590 nm absorbance normalized to zero hour, 1 hr” value [1] was 8.51. For the same compound, the “Substrate use, 590 nm absorbance normalized to zero hour, 5 hr” value [1] was 3.55, the “Substrate use, 590 nm absorbance normalized to zero hour, 7 hr” value [1] was 6.99 and the “590 nm absorbance normalized to zero hour (substrate use), 0 hr” value [2] was 1.00. For the same compound, the “590 nm absorbance normalized to zero hour (substrate use), 1 hr” value [2] was 1.42, the “590 nm absorbance normalized … 2 hr” value [2] was 1.76 and the “590 nm absorbance normalized … 3 hr” value [2] was 1.96. For the same compound, the “590 nm absorbance normalized … 4 hr” value [2] was 2.07, the “590 nm absorbance normalized to zero hour (substrate use), 5 hr” value [2] was 4.65 and the “590 nm absorbance normalized … 6 hr” value [2] was 5.10. The “590 nm absorbance normalized to zero hour (substrate use), 7 hr” value [2] was 3.71, the “590 nm absorbance normalized … 8 hr” value [2] was 3.40 and the “590 nm absorbance normalized … 9 hr” value [2] was 3.17. For the same compound, the “590 nm absorbance normalized … 10 hr” value [2] was 2.89, the “590 nm absorbance normalized … 11 hr” value [2] was 4.13 and the “590 nm absorbance normalized to zero hour (substrate use), 0 hr” value [3] was 1.00. For the same compound, the “590 nm absorbance normalized to zero hour (substrate use), 1 hr” value [3] was 1.42, the “590 nm absorbance normalized … 2 hr” value [3] was 1.76 and the “590 nm absorbance normalized … 3 hr” value [3] was 1.96. For the same compound, the “590 nm absorbance normalized … 4 hr” value [3] was 2.07, the “590 nm absorbance normalized to zero hour (substrate use), 5 hr” value [3] was 4.65 and the “590 nm absorbance normalized … 6 hr” value [3] was 5.10. The “590 nm absorbance normalized to zero hour (substrate use), 7 hr” value [3] was 3.71, the “590 nm absorbance normalized … 8 hr” value [3] was 3.40 and the “590 nm absorbance normalized … 9 hr” value [3] was 3.17. For the same compound, the “590 nm absorbance normalized … 10 hr” value [3] was 2.89 and the “590 nm absorbance normalized … 11 hr” value [3] was 4.13.
For `O=C[C@H](O)[C@@H](O)[C@H](O)[C@H](O)COP(=O)(O)O` [D-Glucose-6-Phosphate], the “590 nm absorbance normalized to zero hour (substrate use), 1 hr” value [1] was 1.14, the “590 nm absorbance normalized … 2 hr” value [1] was 1.18 and the “590 nm absorbance normalized … 3 hr” value [1] was 3.24. The “590 nm absorbance normalized … 4 hr” value [1] was 1.30, the “590 nm absorbance normalized … 6 hr” value [1] was 0.74 and the “590 nm absorbance normalized … 8 hr” value [1] was 1.28. For the same compound, the “590 nm absorbance normalized … 9 hr” value [1] was 1.38, the “590 nm absorbance normalized … 10 hr” value [1] was 2.69 and the “590 nm absorbance normalized … 11 hr” value [1] was 1.87. For the same compound, the “Substrate use, 590 nm absorbance normalized to zero hour, 1 hr” value [1] was 1.14, the “Substrate use, 590 nm absorbance normalized to zero hour, 5 hr” value [1] was 1.48 and the “Substrate use, 590 nm absorbance normalized to zero hour, 7 hr” value [1] was 2.93. The “Substrate use, 590 nm absorbance normalized to zero hour, 1 hr” value [4] was 2.01, the “Substrate use, 590 nm absorbance normalized to zero hour, 5 hr” value [4] was 4.92 and the “Substrate use, 590 nm absorbance normalized to zero hour, 7 hr” value [4] was 5.87. The “590 nm absorbance normalized to zero hour (substrate use), 1 hr” value [2] was 2.01, the “590 nm absorbance normalized … 2 hr” value [2] was 3.00 and the “590 nm absorbance normalized … 3 hr” value [2] was 3.61. For the same compound, the “590 nm absorbance normalized … 4 hr” value [2] was 4.04, the “590 nm absorbance normalized … 6 hr” value [2] was 5.47 and the “590 nm absorbance normalized … 8 hr” value [2] was 6.35. The “590 nm absorbance normalized … 9 hr” value [2] was 7.41, the “590 nm absorbance normalized … 10 hr” value [2] was 7.21 and the “590 nm absorbance normalized … 11 hr” value [2] was 5.87.
